The numbers were not newly measured in patent US4968506A, “Pharmaceutical dosage with core of N-acetyl cystein” (Lejus Medical Aktienbolag, priority 1988, dated 1990), which cites them from elsewhere.

For this data set, the system named is mucous membrane in the stomach. The settings on record: N-acetyl cysteine.

For the compound `CC(=O)N[C@@H](CS)C(=O)O` [N-Acetyl cysteine, N-acetyl cysteine], the reported side effects result was “irritating effect on the mucous membrane in the stomach”.
